Laboratory results published in publication PMC3723878 (PLoS ONE, 2013).
Substitutions are numbered along the chain they refer to.

How the values were obtained:
[1] = molecular target: T1, α1A-AR (Homo sapiens, UniProt P35348); format: binding; design: expressed in transfected cells; host or cells: COS-7, transient (calcium phosphate); settings: ^125I-HEAT 0.4 nM, HEAT 5 µM alone
T1 sequence (P35348 1-466): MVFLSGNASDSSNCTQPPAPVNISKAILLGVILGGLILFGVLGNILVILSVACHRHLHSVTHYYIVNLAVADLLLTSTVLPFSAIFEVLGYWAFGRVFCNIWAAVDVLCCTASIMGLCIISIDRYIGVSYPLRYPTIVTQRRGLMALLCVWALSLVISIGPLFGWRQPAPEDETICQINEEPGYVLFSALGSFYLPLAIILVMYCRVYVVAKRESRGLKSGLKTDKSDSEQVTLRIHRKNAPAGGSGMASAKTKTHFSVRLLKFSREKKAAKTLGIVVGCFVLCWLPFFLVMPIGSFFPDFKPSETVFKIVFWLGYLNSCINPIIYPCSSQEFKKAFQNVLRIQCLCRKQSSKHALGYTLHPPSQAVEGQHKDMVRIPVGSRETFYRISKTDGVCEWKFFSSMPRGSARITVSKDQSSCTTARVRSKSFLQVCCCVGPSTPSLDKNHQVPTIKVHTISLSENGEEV
Experimental: Binding experiments were performed in a 100 µL reaction mix at room temperature in buffer composed of 50 mM Tris-HCl, pH 7.4, 10 mM MgCl2, 1 g/L BSA. Reactions were stopped by filtration through 96 GF/C filter plates pre-incubated with 0.5% polyethylenimine.
Binding data were analyzed by nonlinear regression using the KaleidaGraph 4.0 software (Synergy software, Reading, PA). pKD values and Bmax (number of binding sites) were determined by applying a nonlinear regression to data obtained with saturation binding assays. The nonlinear regression used was BS = (Bmax*A)/KD+A, where BS is the specific binding, Bmax the number of binding sites, A the concentration of radioligand, and KD the dissociation constant of the radioligand. Data resulting from competition binding assays were analyzed using the Hill equation for IC50 and curve slope estimations. […] The linear curves were analyzed with IC50 = Ki+(L/KD)*Ki. Dissociation kinetics were analyzed using a simple equation of exponential decay BS * exp (-Koff*t), where BS is the specific binding at time zero and Koff is the dissociation rate constant. Results are expressed as mean ± s.e. mean from n independent experiments. One-way Anova test was used to compare values. A p<0.05 was accepted for statistical significance.

[2] = molecular target: T2, human α1A-AR S188A/S192A (SS-AA) variant (Homo sapiens, UniProt P35348, S188A/S192A); assay: Saturation binding of ^125I-HEAT
T2 construct: expressed in transfected cells; host or cells: COS-7, transient (calcium phosphate)
T2 sequence (P35348 1-466 S188A/S192A): T1 sequence (P35348 1-466) with S188A, S192A

[3] = molecular target: T3, human α1A-AR F193A variant (Homo sapiens, UniProt P35348, F193A); assay: Saturation binding of ^125I-HEAT
T3 construct: expressed in transfected cells; host or cells: COS-7, transient (calcium phosphate)
T3 sequence (P35348 1-466 F193A): T1 sequence (P35348 1-466) with F193A

With `O=C1c2ccccc2CCC1CNCCc1ccc(O)c([125I])c1` (stereo not shown) [125I-HEAT] the “^125I-HEAT dissociation rate (Koff)” value [1] was 0.00103 s⁻¹, the “^125I-HEAT Ratio (loss of affinity relative to WT)” value ([2]; SS-AA) was 0.78 and the “^125I-HEAT pKd” value ([2]; SS-AA (5.42–5.46), saturation binding, n = 3–6) was 10.15±0.01. The “^125I-HEAT Ratio (loss of affinity relative to WT)” value [3] was 2.8.
